This note sets out measurements from EP1154795B1, “MEANS FOR TREATING AND DIAGNOSING RESTLESS LEGS SYNDROME” (priority 1998, dated 2000).

This data set has as its system patients with light to moderate RLS/PMLS. Put plainly: Double-blind, placebo controlled parallel group study with donepezil. The class given is in vivo. An excerpt: Double-blind, placebo controlled parallel group study with donepezil. In a double-blind, placebo controlled parallel study with the CEI donepezil we studied 9 patients with light to moderate RLS/PMLS (PLM index, PLMI = 3-17).

Setting [1] is: 5mg once daily, evening dose for 21 days.

For the molecule `COc1cc2c(cc1OC)C(=O)C(CC1CCN(Cc3ccccc3)CC1)C2` (stereo not drawn) [Donepezil, donepezil], under setting [1], the “change in total sleep time after treatment” value is listed as “no significant change”, the “increase of the proportion of rapid eye movement sleep after treatment” value was “approximately 30%” and the “side effects during the study period” value is given as “No side effects were reported”. Further, the “mean reduction of PLMI” value (5mg once daily, evening dose for 21 days, from 8.3 to 5.3) is recorded as “approximately 36%”. The “Marked reduction of PLMI (reduction in 5 patients)” value (5 of 9 patients, minor change in 3 patients, one patient increased PLMI, 5mg once daily for 21 days) is 57-100%. Also, the “mean PLMI after treatment” value (9 patients (PLMI = 3-17), 5mg once daily, evening dose for 21 days, mean PLMI reduced from 8.3) is recorded as 5.3.
